Data reported in paper PMC11009625, “Antibiotic class with potent in vivo activity targeting lipopolysaccharide synthesis in Gram-negative bacteria” (Proceedings of the National Academy of Sciences of the …, 2024).
Converted amounts (≈) assume the structure as drawn. Read-outs that look alike come from different tables or passages of the source.

Experiments:
Format in all cases: cell-based
[1] = test system: clinical K. pneumoniae isolates (n=104); assay: MIC distribution and MIC90, clinical K. pneumoniae isolates; settings: Klebsiella pneumoniae; n=104, isolates from Spain, Poland, Denmark and Wales
Procedure: (§1) Minimum inhibitory concentration (MIC) values were determined according to the Clinical Laboratory Standards Institute guidelines. Frequency of resistance was determined by plating ~5 × 10^8 bacterial cells on agar-solidified media plates containing test compound at concentrations corresponding to four times the measured solid-media MIC of the strains. Colonies were counted after 24 h, restreaked onto media containing the same concentration of compound, and the MIC remeasured against the assayed compound. Genomic DNA from isolated clones was sequenced by paired-end sequencing on an Illumina MiSeq device. Complete experimental details available in SI Appendix. […]
(§2) Minimum inhibitory concentration (MIC) determination. Broth microdilution and agar dilution MIC assays were conducted according to CLSI guidelines (M07-2012). Appropriate inoculation suspension density was assessed using a Sensititre Nephelometer with a Sensititre 0.5 […]
(§3) McFarland Standard. […]
(§4) To determine the […]
(§5) genotype of MDR strains from the ENABLE strain collection, de novo assembled contigs were analyzed using ResFinder (12–14) […]
(§6) MIC distribution versus E. coli (n=111)
(§7) Clinical Isolates from Spain, Poland, Denmark and Wales
(§8) Figure S4. MIC distribution and MIC90 versus clinical E. coli isolates
(§9) MIC distribution versus K. pneumoniae (n=104)
(§10) Figure S5. MIC distribution and MIC90 versus clinical K. pneumoniae isolates […]

[2] = test system: clinical MDR K. pneumoniae isolates; assay: MIC, clinical multi-drug resistant K. pneumoniae isolates; settings: Klebsiella pneumoniae
Procedure: as §1, §2, §3, §4
genotype of MDR strains from the ENABLE strain collection, de novo assembled contigs were […]

[3] = test system: clinical E. coli isolates (n=111); assay: MIC distribution and MIC90, clinical E. coli isolates; settings: Escherichia coli; n=111, isolates from Spain, Poland, Denmark and Wales
Procedure: as §1, §2, §3, §4, §5, §6, §7, §8, §9, §10

[4] = test system: A. baumanii BM4454 and efflux-defective BM4652; assay: MIC, A. baumannii laboratory strains; settings: Acinetobacter baumannii
Procedure: as §1
Minimum inhibitory concentration (MIC) determination. Broth microdilution and agar dilution
MIC assays were conducted according to CLSI guidelines (M07-2012). Appropriate inoculation
suspension density was assessed using a Sensititre Nephelometer with a Sensititre 0.5
McFarland Standard. Serum MICs were conducted in 50% heat-inactivated pooled human

[5] = test system: Staphylococcus aureus ATCC 29213; assay: MIC, S. aureus
Procedure: Minimum inhibitory concentration (MIC) values were determined according to the Clinical Laboratory Standards Institute guidelines. Frequency of resistance was determined by plating ~5 × 10^8 bacterial cells on agar-solidified media plates containing test compound at concentrations corresponding to four times the measured solid-media MIC of the strains. Colonies were counted after 24 h, restreaked onto media containing the same concentration of compound, and the MIC remeasured against the assayed compound. Genomic DNA from isolated clones was sequenced by paired-end sequencing on an Illumina MiSeq device. Complete experimental details available in SI Appendix.
Cytotoxicity. The cytotoxicity assay was performed in HepG2 cells as previously described(10) […]
as §2, with “0.5 McFarland Standard. Serum MICs were conducted in 50% heat-inactivated pooled human serum (Sigma-Aldrich). Serum was heated to 56 °C for one hour and then filtered using a 0.2 µm” for “0.5”
Hemolysis. Hemolysis was conducted as previously described (11).
Frequency of Resistance. Frequency of resistance was assessed by spread plating between […] cfu of a freshly-grown culture of the strain of interest on plates containing a concentration of compound corresponding to 4 times the MIC of the strain (as determined by agar-dilution MIC). […] The frequency of resistance was determined by dividing the number of colonies obtained on the selective plates after 24 hours of growth by the calculated total population plated. […]
Whole-genome sequencing and data analysis. […] Whole-genome sequencing data was analyzed using CLC Genomics Workbench Version 11. To determine the genotype of MDR strains from the ENABLE strain collection, de novo assembled contigs were analyzed using ResFinder (12–14) […]

[6] = read-out: MIC K. pneumoniae EN0140
[7] = read-out: MIC K. pneumoniae EN0142
[8] = read-out: MIC K. pneumoniae EN0143
[9] = read-out: MIC K. pneumoniae EN0144
[10] = read-out: MIC K. pneumoniae EN0145
[11] = read-out: MIC K. pneumoniae EN0233
[12] = read-out: MIC K. pneumoniae EN0245
[13] = read-out: MIC K. pneumoniae EN0504
[14] = read-out: MIC A. baumanii BM4454
[15] = read-out: MIC A. baumanii BM4652
[16] = ATCC29213, read-out: MIC S. aureus ATCC 29213

## Cc1cc(C#N)nc(N2CCN(S(=O)(=O)c3ccc(NC(=O)c4cc(CNCCCN)ccc4N(C)S(C)(=O)=O)cc3)CC2)n1.Cl.Cl [EBL-3599]
[1]
  MIC90: 8 µg/mL
[2]; [6]
  MIC: 1 µg/mL
[2]; [7]
  MIC: 2 µg/mL
[2]; [8]
  MIC: 2 µg/mL
[2]; [9]
  MIC: 2 µg/mL
[2]; [10]
  MIC: 4 µg/mL
[2]; [11]
  MIC: 4 µg/mL
[2]; [12]
  MIC: 8 µg/mL
[2]; [13]
  MIC: 4 µg/mL
[3]
  MIC90: 4 µg/mL
[4]; [14]
  MIC: > 64 µg/mL
[4]; [15]
  MIC: 32 µg/mL
[5]; ATCC29213, WT, read-out: MIC S. aureus ATCC 29213
  MIC: > 64 µg/mL

## Cc1cc(C#N)nc(N2CCN(S(=O)(=O)c3ccc(NC(=O)c4cc(CN5CC(CN)C5)ccc4N(C)S(C)(=O)=O)cc3)CC2)n1 [EBL-3647]
[1]
  MIC90: 8 µg/mL (≈ 12 µM)
[2]; [6]
  MIC: 1 µg/mL (≈ 1.5 µM)
[2]; [7]
  MIC: 2 µg/mL (≈ 2.99 µM)
[2]; [8]
  MIC: 2 µg/mL (≈ 2.99 µM)
[2]; [9]
  MIC: 2 µg/mL (≈ 2.99 µM)
[2]; [10]
  MIC: 4 µg/mL (≈ 5.99 µM)
[2]; [11]
  MIC: 4 µg/mL (≈ 5.99 µM)
[2]; [12]
  MIC: 4 µg/mL (≈ 5.99 µM)
[2]; [13]
  MIC: 4 µg/mL (≈ 5.99 µM)
[3]
  MIC90: 4 µg/mL (≈ 5.99 µM)
[4]; [14]
  MIC: > 64 µg/mL
[4]; [15]
  MIC: 64 µg/mL (≈ 95.8 µM)
[5]; [16]
  MIC: > 64 µg/mL

## CN(c1ccccc1C(=O)Nc1ccc(S(=O)(=O)N2CCN(c3cccc(C(F)(F)F)c3)CC2)cc1)S(C)(=O)=O [JEDI-1444]
[5]; [16]
  MIC: > 64 µg/mL
